Data from ChEMBL document CHEMBL1152035, “Rational design of potent carboxylic acid based bisubstrate inhibitors of ras farnesyl protein transferase” (Bioorg Med Chem Lett, 1994).

target: Protein farnesyltransferase (Homo sapiens, UniProt P49354+P49356); test: Inhibition of ras Farnesyltransferase; format: protein-complex assay

SMILES | IC50 [µM]
CC(C)=CCC/C(C)=C/CC/C(C)=C/CN[C@@H](CCC(=O)N[C@H](C(=O)N[C@@H](CC(C)C)C(=O)N[C@@H](CO)C(=O)O)C(C)C)C(=O)O | 3.4
CC(C)=CCC/C(C)=C/CC/C(C)=C/CN[C@H](CCC(=O)N[C@H](C(=O)N[C@@H](CC(C)C)C(=O)N[C@@H](CO)C(=O)O)C(C)C)C(=O)O | 14
CC(C)=CCC/C(C)=C/CC/C(C)=C/CC(CCCC(=O)N[C@H](C(=O)N[C@@H](CC(C)C)C(=O)N[C@@H](CO)C(=O)O)C(C)C)C(=O)O (some centres undefined) | 1.2
CC(C)=CCC/C(C)=C/CC/C(C)=C/CC(CCCCC(=O)N[C@H](C(=O)N[C@@H](CC(C)C)C(=O)N[C@@H](CO)C(=O)O)C(C)C)C(=O)O (some centres undefined) | 1.8
CC(C)=CCC/C(C)=C/CC/C(C)=C/CC(CCC(=O)N[C@H](C(=O)N[C@@H](CC(C)C)C(=O)N[C@@H](CO)C(=O)O)C(C)C)C(=O)NCP(=O)(O)O (some centres undefined) | 0.15
CC(C)=CCC/C(C)=C/CC/C(C)=C/CC(CC(=O)N[C@H](C(=O)N[C@@H](CC(C)C)C(=O)N[C@@H](CO)C(=O)O)C(C)C)C(=O)O (some centres undefined) | 4.5
CC(C)=CCC/C(C)=C/CC/C(C)=C/CCCCC(=O)N[C@H](C(=O)N[C@@H](CC(C)C)C(=O)N[C@@H](CO)C(=O)O)C(C)C | > 360
CC(C)=CCC/C(C)=C/CC/C(C)=C/CC(C[C@H](NC(=O)OC(C)(C)C)C(=O)N[C@H](C(=O)N[C@@H](CC(C)C)C(=O)N[C@@H](CO)C(=O)O)C(C)C)C(=O)O (some centres undefined) | 20
CC(C)=CCC/C(C)=C/CC/C(C)=C/CC(CCC(=O)N[C@H](C(=O)N[C@@H](CC(C)C)C(=O)N[C@@H](CO)C(=O)O)C(C)C)C(=O)O (some centres undefined) | 0.9
CCOC(=O)C(C/C=C(\C)CC/C=C(\C)CCC=C(C)C)CCC(=O)N[C@H](C(=O)N[C@@H](CC(C)C)C(=O)N[C@@H](CO)C(=O)O)C(C)C (some centres undefined) | > 360
CCCCCCCCCCCCC(CCC(=O)N[C@H](C(=O)N[C@@H](CC(C)C)C(=O)N[C@@H](CO)C(=O)O)C(C)C)C(=O)O (some centres undefined) | 10
CC(C)=CCC/C(C)=C/CC/C(C)=C/CNC(=O)C(CCC(=O)N[C@H](C(=O)N[C@@H](CC(C)C)C(=O)N[C@@H](CO)C(=O)O)C(C)C)C(=O)O (some centres undefined) | 4.4
CC(C)=CCC/C(C)=C/CC/C(C)=C/C(=O)N[C@@H](CCC(=O)N[C@H](C(=O)N[C@@H](CC(C)C)C(=O)N[C@@H](CO)C(=O)O)C(C)C)C(=O)O (stereo in doubt; 28 (L)) | 0.033
CC(C)=CCC/C(C)=C/CC/C(C)=C/C(=O)N[C@@H](CCC(=O)N[C@H](C(=O)N[C@@H](CC(C)C)C(=O)N[C@@H](CO)C(=O)O)C(C)C)C(=O)O (stereo in doubt; 29 (D)) | 3.4
